These molecules were tested against human PD-L1 (Homo sapiens (Human), UniProt Q9NZQ7) (assay: T cell activation luciferase reporter cell culture system (T Cell Activation Assay)). Details: luciferase reporter assay; PD-L1 aAPC/CHO-K1 cells with PD-1 effector Jurkat T cells.
Format: cell-based

human PD-L1, sequence (Q9NZQ7 19-290): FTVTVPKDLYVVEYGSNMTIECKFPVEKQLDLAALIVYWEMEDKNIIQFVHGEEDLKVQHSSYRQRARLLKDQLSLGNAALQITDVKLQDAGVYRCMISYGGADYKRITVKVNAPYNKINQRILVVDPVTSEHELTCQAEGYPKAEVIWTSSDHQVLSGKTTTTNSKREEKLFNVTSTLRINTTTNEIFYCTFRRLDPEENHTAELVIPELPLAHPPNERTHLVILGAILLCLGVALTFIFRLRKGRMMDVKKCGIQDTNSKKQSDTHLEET

Compound | EC50
COc1cc(-c2nccc(-c3cccc(-c4ccc(CNC5CC6(COC6)C5)c(OC)n4)c3Cl)c2Cl)ccc1CNC1CC2(COC2)C1 (stereo not shown) [Example 365, N-(4-(4-(3-(5-(((2-Oxaspiro[3.3]heptan-6-yl)amino)methyl)-6-methoxypyridin-2-yl)-2-chlorophenyl)-3-chloropyridin-2-yl)-2-methoxybenzyl)-2-oxaspiro[3.3]heptan-6-amine] | 19.9 nM
COc1cc(-c2nccc(-c3cccc4c3CC[C@@H]4Nc3nc(OC)c(CN4CC5(CNC(=O)C5)C4)nc3C(F)(F)F)c2Cl)ccc1CN1CC2(CNC(=O)C2)C1 [Example 366, (S)-2-(4-(3-Chloro-4-(1-((6-methoxy-5-((7-oxo-2,6-diazaspiro[3.4]octan-2-yl)methyl)-3-(trifluoromethyl)pyrazin-2-yl)amino)-2,3-dihydro-1H-inden-4-yl)pyridin-2-yl)-2-methoxybenzyl)-2,6-diazaspiro[3.4]octan-7-one] | 159 nM
COc1cc(-c2nccc(-c3cccc4c3CC[C@@H]4Nc3nc(OC)c(CN4CC5(C4)CN(C(C)=O)C5)nc3C(F)(F)F)c2Cl)ccc1CN1CC2(C1)CN(C(C)=O)C2 [Example 367, (S)-1-(6-((5-((4-(2-(4-((6-Acetyl-2,6-diazaspiro[3.3]heptan-2-yl)methyl)-3-methoxyphenyl)-3-chloropyridin-4-yl)-2,3-dihydro-1H-inden-1-yl)amino)-3-methoxy-6-(trifluoromethyl)pyrazin-2-yl)methyl)-2,6-diazaspiro[3.3]heptan-2-yl)ethan-1-one] | 412 nM
COc1nc(-c2cccc(-c3ccnc(-c4cc(OC)c5nc(CN[C@H]6C[C@](C)(O)C6)nn5c4)c3Cl)c2Cl)ccc1CNC[C@@H]1CCC(=O)N1 [Example 370, (S)-5-((((6-(2-Chloro-3-(3-chloro-2-(2-((((1r,3r)-3-hydroxy-3-methylcyclobutyl)amino)methyl)-8-methoxy-[1,2,4]triazolo[1,5-a]pyridin-6-yl)pyridin-4-yl)phenyl)-2-methoxypyridin-3-yl)methyl)amino)methyl)pyrrolidin-2-one] | 41.2 nM
COc1cc(-c2nccc(-c3cccc(-c4ccc(CNCCCCC(N)=O)c(OC)n4)c3Cl)c2Cl)ccc1CNCCCCC(N)=O [Example 373, 5-(((6-(3-(2-(4-(((5-Amino-5-oxopentyl)amino)methyl)-3-methoxyphenyl)-3-chloropyridin-4-yl)-2-chlorophenyl)-2-methoxypyridin-3-yl)methyl)amino)pentanamide] | 152 nM
COc1nc(-c2cccc(-c3ccnc(-c4cnc5c(CN6CC7(CNC(=O)C7)C6)cn(C)c5c4)c3Cl)c2Cl)ccc1CNC[C@@H]1CCC(=O)N1 [Example 378, (S)-2-((6-(3-Chloro-4-(2-chloro-3-(6-methoxy-5-((((5-oxopyrrolidin-2-yl)methyl)amino)methyl)pyridin-2-yl)phenyl)pyridin-2-yl)-1-methyl-1H-pyrrolo[3,2-b]pyridin-3-yl)methyl)-2,6-diazaspiro[3.4]octan-7-one] | 73.8 nM
COc1nc(-c2cccc(-c3ccnc(-c4cc(OC)c5nc(CN[C@H]6CC[C@H](O)CC6)cn5c4)c3Cl)c2Cl)ccc1CNC[C@@H]1CCC(=O)N1 [Example 384, (S)-5-((((6-(2-Chloro-3-(3-chloro-2-(2-((((1r,4r)-4-hydroxycyclohexyl)amino)methyl)-8-methoxyimidazo[1,2-a]pyridin-6-yl)pyridin-4-yl)phenyl)-2-methoxypyridin-3-yl)methyl)amino)methyl)pyrrolidin-2-one] | 70 nM
COc1cc(-c2nccc(-c3cccc(-c4ccc(CN[C@H]5C[C@](C)(O)C5)c(OC)n4)c3Cl)c2Cl)ccc1CN[C@H]1C[C@](C)(O)C1 [Example 385, (1r,3r)-3-(((6-(2-Chloro-3-(3-chloro-2-(4-((((1r,3r)-3-hydroxy-3-methylcyclobutyl)amino)methyl)-3-methoxyphenyl)pyridin-4-yl)phenyl)-2-methoxypyridin-3-yl)methyl)amino)-1-methylcyclobutan-1-ol] | 17.8 nM
COc1cc(-c2nccc(-c3cccc(-c4ccc(CN5CC6(COC6)C5)c(OC)n4)c3Cl)c2Cl)ccc1CN1CC2(COC2)C1 [Example 387, 6-((6-(3-(2-(4-((2-Oxa-6-azaspiro[3.3]heptan-6-yl)methyl)-3-methoxyphenyl)-3-chloropyridin-4-yl)-2-chlorophenyl)-2-methoxypyridin-3-yl)methyl)-2-oxa-6-azaspiro[3.3]heptane] | 8.22 nM
COc1cc(-c2nccc(-c3cccc(-c4ccc(CNC5CCOCC5)c(OC)n4)c3Cl)c2Cl)ccc1CNC1CCN(C(C)=O)CC1 [Example 391, 1-(4-((4-(3-chloro-4-(2-chloro-3-(6-methoxy-5-(((tetrahydro-2H-pyran-4-yl)amino)methyl)pyridin-2-yl)phenyl)pyridin-2-yl)-2-methoxybenzyl)amino)piperidin-1-yl)ethan-1-one] | 18 nM
COc1cc(-c2nccc(-c3cccc(-c4ccc(CNC5CCN(C(C)=O)CC5)c(OC)n4)c3Cl)c2Cl)ccc1CNC1CCOCC1 [Example 392, 1-(4-(((6-(2-chloro-3-(3-chloro-2-(3-methoxy-4-(((tetrahydro-2H-pyran-4-yl)amino)methyl)phenyl)pyridin-4-yl)phenyl)-2-methoxypyridin-3-yl)methyl)amino)piperidin-1-yl)ethan-1-one] | 17.6 nM

The remaining lines, values ahead:

EC50 | Compound
28.5 nM | COc1cc(-c2nccc(-c3cccc(-c4ccc(CN[C@H]5CC[C@H](O)CC5)c(OC)n4)c3Cl)c2Cl)ccc1CN[C@H]1CC[C@H](O)CC1 [Example 364, (1r,4r)-4-(((6-(2-Chloro-3-(3-chloro-2-(4-((((1r,4r)-4-hydroxycyclohexyl)amino)methyl)-3-methoxyphenyl)pyridin-4-yl)phenyl)-2-methoxypyridin-3-yl)methyl)amino)cyclohexan-1-ol]
37.4 nM | COc1cc(-c2nccc(-c3cccc(-c4ccc(CN5CC6(CNC(=O)C6)C5)c(OC)n4)c3Cl)c2C)ccc1CN1CC2(CNC(=O)C2)C1 [Example 368, 2-((6-(2-Chloro-3-(2-(3-methoxy-4-((7-oxo-2,6-diazaspiro[3.4]octan-2-yl)methyl)phenyl)-3-methylpyridin-4-yl)phenyl)-2-methoxypyridin-3-yl)methyl)-2,6-diazaspiro[3.4]octan-7-one]
369 nM | COc1cc(-c2nccc(-c3cccc(-c4ccc(CN5CC6(C5)CN(C(C)=O)C6)c(OC)n4)c3Cl)c2C)ccc1CN1CC2(C1)CN(C(C)=O)C2 [Example 369, 1-(6-((6-(3-(2-(4-((6-Acetyl-2,6-diazaspiro[3.3]heptan-2-yl)methyl)-3-methoxyphenyl)-3-methylpyridin-4-yl)-2-chlorophenyl)-2-methoxypyridin-3-yl)methyl)-2,6-diazaspiro[3.3]heptan-2-yl)ethan-1-one]
48.7 nM | COc1cc(-c2nccc(-c3cccc(-c4ccc(CNC5CCN(C(C)=O)CC5)c(OC)n4)c3Cl)c2Cl)ccc1CNC1CCN(C(=O)C(C)C)CC1 [Example 371, 1-(4-((4-(4-(3-(5-(((1-acetylpiperidin-4-yl)amino)methyl)-6-methoxypyridin-2-yl)-2-chlorophenyl)-3-chloropyridin-2-yl)-2-methoxybenzyl)amino)piperidin-1-yl)-2-methylpropan-1-one]
23.5 nM | COc1cc(-c2nccc(-c3cccc(-c4ccc(CNC5CCN(S(C)(=O)=O)CC5)c(OC)n4)c3Cl)c2Cl)ccc1CNC1CCN(S(C)(=O)=O)CC1 [Example 372, N-((6-(2-Chloro-3-(3-chloro-2-(3-methoxy-4-(((1-(methylsulfonyl)piperidin-4-yl)amino)methyl)phenyl)pyridin-4-yl)phenyl)-2-methoxypyridin-3-yl)methyl)-1-(methylsulfonyl)piperidin-4-amine]
44.6 nM | COc1cc(-c2nccc(-c3cccc(-c4ccc(CN[C@@H]5CCN(C(C)=O)C5)c(OC)n4)c3Cl)c2Cl)ccc1CN[C@@H]1CCN(C(C)=O)C1 [Example 374, 1-((R)-3-(((6-(3-(2-(4-((((R)-1-Acetylpyrrolidin-3-yl)amino)methyl)-3-methoxyphenyl)-3-chloropyridin-4-yl)-2-chlorophenyl)-2-methoxypyridin-3-yl)methyl)amino)pyrrolidin-1-yl)ethan-1-one]
405 nM | COc1nc(-c2cccc(-c3ccnc(-c4cnc5c(CN6CCC(NC(C)=O)CC6)cn(C)c5c4)c3Cl)c2Cl)ccc1CNC[C@@H]1CCC(=O)N1 [Example 377, (S)—N-(1-((6-(3-chloro-4-(2-chloro-3-(6-methoxy-5-((((5-oxopyrrolidin-2-yl)methyl)amino)methyl)pyridin-2-yl)phenyl)pyridin-2-yl)-1-methyl-1H-pyrrolo[3,2-b]pyridin-3-yl)methyl)piperidin-4-yl)acetamide]
45.3 nM | COc1cc(-c2nccc(-c3cccc(-c4ccc(CNC5CCN(C(C)=O)CC5)c(OC)n4)c3Cl)c2Cl)ccc1CNC1CC2(COC2)C1 [Example 379, 1-(4-(((6-(3-(2-(4-(((2-Oxaspiro[3.3]heptan-6-yl)amino)methyl)-3-methoxyphenyl)-3-chloropyridin-4-yl)-2-chlorophenyl)-2-methoxypyridin-3-yl)methyl)amino)piperidin-1-yl)ethan-1-one]
15.3 nM | COc1cc(-c2nccc(-c3cccc(-c4ccc(CNC5CCN(C(=O)C(C)C)CC5)c(OC)n4)c3Cl)c2Cl)ccc1CNC1CCN(C(C)=O)CC1 [Example 382, 1-(4-(((6-(3-(2-(4-(((1-acetylpiperidin-4-yl)amino)methyl)-3-methoxyphenyl)-3-chloropyridin-4-yl)-2-chlorophenyl)-2-methoxypyridin-3-yl)methyl)amino)piperidin-1-yl)-2-methylpropan-1-one]
38.5 nM | COc1cc(-c2nccc(-c3cccc(-c4ccc(CN5CC[C@H](C(=O)O)C5)c(OC)n4)c3Cl)c2Cl)ccc1CNC1CCN(C(C)=O)CC1 [Example 388, (S)-1-((6-(3-(2-(4-(((1-acetylpiperidin-4-yl)amino)methyl)-3-methoxyphenyl)-3-chloropyridin-4-yl)-2-chlorophenyl)-2-methoxypyridin-3-yl)methyl)pyrrolidine-3-carboxylic acid]
56.6 nM | COc1cc(-c2nccc(-c3cccc(-c4ccc(CNC5CCN(C(C)=O)CC5)c(OC)n4)c3Cl)c2Cl)ccc1CNCCC(=O)O [Example 390, 3-((4-(4-(3-(5-(((1-acetylpiperidin-4-yl)amino)methyl)-6-methoxypyridin-2-yl)-2-chlorophenyl)-3-chloropyridin-2-yl)-2-methoxybenzyl)amino)propanoic acid]

Reference: US20240246964A1 (Arbutus Biopharma Corporation, priority 2021, published 2024)
